Where “and” joins values, the source holds several entries; their conditions need not be identical. Equal values may be shown once. Read-outs that look alike come from different tables or passages of the source.

The values that follow come from patent US20130252843A1, “METHOD OF MAKING AND USING FLUORESCENT-TAGGED NANOPARTICLES AND MICROARRAYS” (THE STATE OF OREGON ACTING BY AND THROUGH THE STATE BOARD …, priority 2010, published 2013).

For one series, the target named is CVN-Q (Nostoc ellipsosporum, UniProt P81180, Q50C).
A further series concerns the target CVN-M (Nostoc ellipsosporum, UniProt P81180, E41A/N42A/T57A/R76A/Q78G).
For series [1], the target named is T1, Con A (Canavalia ensiformis, UniProt P02866).
T1 construct: purchased Sigma-Aldrich Type IV (catalogue number not given)

A further series concerns the target SBA (Soybean Agglutinin) (Glycine max, UniProt P05046). The following applies: free glycan; cited from earlier work.
Series [2] addresses T2, PNA (Arachis hypogaea, UniProt P02872).
T2 construct: purchased Sigma-Aldrich
T2 sequence (P02872 24-273): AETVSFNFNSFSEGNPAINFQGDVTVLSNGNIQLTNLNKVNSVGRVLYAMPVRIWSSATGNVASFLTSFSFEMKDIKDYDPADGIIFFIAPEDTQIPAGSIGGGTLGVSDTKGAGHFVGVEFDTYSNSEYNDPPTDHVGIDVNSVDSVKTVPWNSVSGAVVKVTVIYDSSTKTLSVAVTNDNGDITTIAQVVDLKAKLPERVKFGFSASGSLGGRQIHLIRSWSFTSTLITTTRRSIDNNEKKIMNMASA
The note with it: free glycan; cited from earlier work.

Series [3] concerns the target DBA (Dolichos Biflorus Agglutinin) (Vigna unguiculata subsp. cylindrica, UniProt P05045). The following applies: free glycan; cited from earlier work.
The target in series [4] is RCA (Ricinus Communis Agglutinin I) (Ricinus communis, UniProt P06750). The following applies: free glycan; cited from earlier work.
In series [5] the target is blindly prepared lectins (U1-U7) (Glycine max, UniProt P05046). Format: binding. On the set-up: unit not given here. As for the experimental part: (§1) The unspecific binding sites of Sugar coupled Au-PFPA was inhibited by the addition of BSA (3% BSA, 0.2% Tween in PBS buffer pH 7). The 1,500 μL of sugar-coupled Au-PFPA was centrifuged at 9,000 rpm for 8 minutes and was redissolved in a PBS buffer with 3% BSA (0.2% Tween). The volume was made up to 900 μL. The resultant solution was incubated at room temperature with gentle shaking for 1 hour. The BSA blocked Au-PFPA-sugar nanoparticle was centrifuged at 10,000 rpm for 6 minutes and the excess BSA was removed. To a volume of 1,500 μL solution 10 mg/mL lectin (Con A—Concanavalin A, Canavalia ensiformis jack bean protein, SBA—soybean agglutinin, Glycine max and PNA—Peanut Agglutinin, Arachis hypogaea all purchased from Sigma Aldrich) was introduced the resultant solution was incubated at room temperature while gently shaking.
(§2) To test the training matrix and its strength to identify individual lectins, seven blindly prepared lectins (U1-U7) were used as test samples. The procedure for each test sample is the same as that used for the known samples used in the training matrix. The final SPR shift (Table 14) was used in the training matrix (Table 10) for prediction.

Another series deals with T3, PNA, Peanut Agglutinin (Arachis hypogaea, UniProt P02872).
T3 construct: purchased Sigma-Aldrich
The following applies: cited from earlier work.

Series [6] deals with RCA, Ricinus Communis Agglutinin I. The note with it: cited from earlier work.
Series [7] is described as follows: UV irradiation photostability. Format: physicochemical. The note with it: 450-W medium-pressure Hg lamp, 10 minutes; of the original value. Here is the method: To confirm that the entrapped FITC would withstand the UV irradiation conditions used for a subsequent photocoupling reaction, a solution containing FITC-doped SNPs was irradiated with a 450-W medium-pressure Hg lamp for 10 minutes. […] See, FIG. 6. On the other hand, when the […] was irradiated under the same conditions, the fluorescent intensity was reduced to about 50% of the original value. See, FIG. 7.

The next series deals with T4, ConA-FSNPs (Canavalia ensiformis, UniProt P02866).
T4 construct: purchased Sigma-Aldrich Type IV
Briefly: Carbohydrate microarray incubated with ConA-FSNPs, fluorescence imaging. The following applies: PS coating; ConA-FSNPs 0.5 mg/ml. It counts as binding. Here is the method: This example concerns the fabrication of carbohydrate microarrays. […] The slides were then reacted with PAAm-4-PFPA solution at 50° C. for 5 hours, and sonicated twice in H2O for 5 minutes each time. Solutions of carbohydrates were prepared in H2O. […] The slides were dried under oil pump for 1 hour. A solution of PS or PEO in CHCl3 (5 mg/ml) was spinning-coated on the slides. The Slides were then covered with a 280-nm long-path optical filter (WG-280, Schott Glass), irradiated with a 450-W medium pressure Hg lamp (Hanovia) for 9 min, sonicated 5 min in CHCl3 and 5 minutes in H2O.
This example concerns microarray assay and fluorescence imaging. Carbohydrate microarrays were incubated in a 0.5 mg/ml solution of ConA-FSNPs in HEPES (pH 7.5, 1 mM CaCl2, 1 mM MnCl2) for 1 hour, rinsed with HEPES buffer 3 times and dried. The slides were scanned using a Genepix 4000B microarray scanner at excitation of 532 nm. Image analysis was carried out with Axon Genepix Pro 5.1 analysis software (Molecular Devices Corporation, Union City, Calif.).
FIG. 52 provides the fluorescence images of carbohydrate microarrays with PS or PEO coating incubated with ConA-FSNPs at 0.5 mg/ml. […] However, for carbohydrate microarrays having a PEO coating, the signal from those “high-intensity” carbohydrate targets was negative (FIG. 53).

Series [8] has as its target T1, Con A. Briefly: Protein bio assay, SPR shift of sugar coupled Au-PFPA nanoparticles with lectin. It counts as binding. Also on record: unit: nm. The following applies: replicates.
Description: (§3) In other particular embodiments, the interactions between one or more targets and one or more PHPA-derived nanoparticle probes can be measured using absorbance spectroscopy. Particular embodiments concern using surface plasmon resonance. In these embodiments, both the λmax produced before the PHPA-derived nanoparticle probe interacts with the target and the λmax produced after the PHPA-derived nanoparticle probe interacts with the target are detected. The change in λmax provides a numerical number that can be used in further statistical analysis.
as §1, with “shaking. […]” for “shaking.”

Series [9] deals with T2, PNA. The description is as above. It counts as binding. Also on record: unit: nm. The following applies: replicates.
Description: as §3, §1
(§4) A training matrix was created using three lectins (Con A, SBA and PNA) and four types of sugar-bound Au-PFPA nanoparticles. Each assay was repeated three times, providing a 3×4×3 training matrix (Table 10). The factor scores (Zi from equation (1) or Fi) calculated for the training matrix from XLSTAT® were F1=98.10% and F2=1.90%.
(§5) A study was also done to identify different lectins using specific binding interaction between lectins and sugars (Wang, X.; Ramstrom, O.; Yan, M. J. Mat. Chem. 2009, 19, 8944-8949). The lectins used in the study were Con A, SBA, PNA and GSII. The sugars used were D-Mannose, D-Glucose, D-Galactose, α-1,4-mannobiose, α-1,3-galactobiose and N-acetyl-D-glucosamine. These sugars are known to have specific binding to lectins (Jurs, P. Science 1986, 232, 1219-1224). The training matrix was created as four lectins×six sugars×five replicates (Table 12). […] The Wilk's lamda (A) value for the training set was 0.000. […] The 95% confidence ellipses show clear spatial separation, and no overlap between the ellipses is visible. Unlike the weak binding interactions studied in before using non-specific binding sugars, the strong binding sugars show very good class separation.

For another series, the target named is T5, SBA (Glycine max, UniProt P05046).
T5 construct: purchased Sigma-Aldrich
The series is described as above. Format: binding. On the set-up: unit: nm. The note with it: replicates.
Description: as §3, §1, §4, §5

For series [10], the target named is blindly prepared lectins (U1-U7) (Arachis hypogaea, UniProt P02872). Format: binding. Also on record: unit not given here. The note with it: unknown protein u5 (predicted class PNA). Here is the method:
as §1, §2

The target of series [11] is blindly prepared lectins (U1-U7) (Canavalia ensiformis, UniProt P02866). Format: binding. Also on record: unit not given here. As for the experimental part:
as §1, §2

Where [12] appears, read: Domain A; cited from earlier work.
Setting [13] is: Domain B; cited from earlier work.
[14] abbreviates: free glycan; cited from earlier work.
Setting [15] is: free glycan, solution; cited from earlier work.
[16] abbreviates: unknown protein u1 (predicted class SBA).
The mark [17] stands for this setting: unknown protein u7 (predicted class SBA).
Setting [18] is: unknown protein u3 (predicted class Con A).
[19] abbreviates: unknown protein u4 (predicted class Con A).
Setting [20] is: unknown protein u2 (predicted class SBA).
Setting [21] is: unknown protein u6 (predicted class SBA).

Consider `OC[C@H]1O[C@H](O[C@@H]2[C@@H](O[C@@H]3C(O)O[C@H](CO)[C@@H](O)[C@@H]3O)O[C@H](CO)[C@@H](O)[C@@H]2O)[C@@H](O)[C@@H](O)[C@@H]1O` (stereo partly drawn) [2α, 2α-Man3, α-1,2-α-1,2-mannotriose], for which the “Association constant Ka with CVN-Q” value is 2.94 × 10^5 (Domain A); M^−1 on CVN-Q (setting [12]) and 2.33 × 10^4 (Domain B) M^−1 on CVN-Q (setting [13]). Besides, the Kd on CVN-Q (data in brackets, free ligand; read-out: dissociation constant of the free ligand with CVN-Q; cited from earlier work) was 15.5 µM; at CVN-M (data in brackets, free ligand; read-out: dissociation constant of the free ligand with CVN-M; cited from earlier work), 3.4 µM; on Con A [1] (data in brackets, free ligand; read-out: dissociation constant of the free ligand with Con A; cited from earlier work), 2.97 µM. The “Association constant Ka with CVN-M” value at CVN-M (setting [14]) and on CVN-M (free glycan; listed as 2α,2α-Man3; cited from earlier work) was 294000 M⁻¹ in each case. Besides, the “Association constant Ka with Con A” value on Con A [1] (setting [15]) was 379000 M⁻¹; at Con A [1] (free glycan, solution; listed as 2α,2α-Man3; cited from earlier work), 379000 M⁻¹.

With `CC(=O)N[C@H]1C(O)O[C@H](CO)[C@H](O)[C@@H]1O` (stereo partly drawn) [GalNAc], the “Association constant Ka with SBA” value at SBA (Soybean Agglutinin) is 1.51e+06 M⁻¹. On PNA [2], the “Association constant Ka with PNA” value was 2430 M⁻¹. Moreover, in series [3], the “Association constant Ka with DBA” value is 4200 M⁻¹. Moreover, in [4], the “Association constant Ka with RCA” value is 48400 M⁻¹.

For `O=C[C@H](O)[C@@H](O)[C@H](O[C@@H]1O[C@H](CO)[C@@H](O)[C@H](O)[C@H]1O)[C@H](O)CO` [Cellobiose], the “Unknown SPR shift, weak binders” value in series [5] (setting [16]) and in series [5] (setting [17]) was 2.1 each time.

Take `OC[C@H]1OC(O)[C@H](O)[C@@H](O)[C@H]1O` (stereo partly drawn) [Gal, D-(+)-galactose]: the Ka at PNA, Peanut Agglutinin is reported as ~10^3 M^−1; in series [6], ~10^3 M^−1.

For `O=C(O)c1cc(N=C=S)ccc1-c1c2ccc(=O)cc-2oc2cc(O)ccc12` [FITC, fluorescein isothiocyanate], the “fluorescence intensity after UV irradiation” value in series [7] is given as “about 50%”.

Regarding `OC[C@H]1O[C@@H](O[C@H]2[C@H](O)[C@@H](O)[C@@H](O)O[C@@H]2CO)[C@H](O)[C@@H](O)[C@H]1O` [Lac], at ConA-FSNPs, the “labeling intensity by ConA-FSNPs on carbohydrate microarray” value (from here on “labeling intensity by ConA-FSNPs”) is “slightly less”.

As to Arabinose, the “SPR shift, training matrix” value on Con A [8] was 1.9 and 0.8 and 1.1; on PNA [9], 2.1 and 1.8 and 1.6; at SBA it was 5.1 and 5.9 and 4.5. In addition, the “Unknown SPR shift, weak binders” value in [10] is listed as 1.9; in series [11] (setting [18]) it was 1.1; in [11] (setting [19]), 1; in series [5] (setting [16]) it was 4.5; in [5] (setting [20]) it was 5; in [5] (setting [21]), 4.5. In series [5] (setting [17]), the “Unknown SPR shift, weak binders” value is recorded as 4.5.

As to `OC[C@H]1O[C@H](O[C@@H]2C(O)O[C@H](CO)[C@@H](O)[C@@H]2O)[C@@H](O)[C@@H](O)[C@@H]1O` (stereo partly drawn) [Compound 2α-Man2, 2-O-α-D-Mannopyranosyl-D-mannopyranose], on ConA-FSNPs, the “labeling intensity by ConA-FSNPs” value was “most intensely”. Further, the “Association constant Ka with CVN-Q” value on CVN-Q (setting [12]) is on record as 1.43 × 10^3 (Domain A); M^−1; on CVN-Q (setting [13]), 1.56 × 10^4 (Domain B) M^−1. Further, the Kd on CVN-Q (read-out: dissociation constant of the free ligand with CVN-Q; data in brackets, free ligand; cited from earlier work) was 89.8 µM; on CVN-M (read-out: dissociation constant of the free ligand with CVN-M; data in brackets, free ligand; cited from earlier work), 757 µM; at Con A [1] (read-out: dissociation constant of the free ligand with Con A; data in brackets, free ligand; cited from earlier work) it was 24 µM. On CVN-M (setting [14]), the “Association constant Ka with CVN-M” value was 1320 M⁻¹. The “Association constant Ka with Con A” value on Con A [1] (setting [15]) was 41700 M⁻¹.

Lactose: the “SPR shift, training matrix” value on Con A [8] is 6.2 and 5.1 and 7.9; at PNA [9], 3.7 and 2 and 2.4; on SBA, 1.5 and 3.7 and 1.1. Moreover, the “Unknown SPR shift, weak binders” value was 2.5 in [10]; 5.5 in series [11] (setting [18]); 5.7 in [11] (setting [19]); 1.6 in series [5] (setting [16]); 1.1 in series [5] (setting [20]); 1.6 in series [5] (setting [21]). Besides, the “Unknown SPR shift, weak binders” value in series [5] (setting [17]) is given as 1.1.

Consider Dextran, for which the “labeling intensity by ConA-FSNPs” value on ConA-FSNPs is on record as “slightly less”.
